Test results: the NIST ThermoML archive (doi:10.1021/je301001g)

Settings: for surface tension liquid-gas: Maximal bubble pressure; for mass density / electrical conductivity / viscosity: 101.33 kPa, Liquid; for mass density: Buoyancy - hydrostatic balance; for electrical conductivity: MP522 conductivity instrument; for viscosity: Capillary tube (Ostwald / Ubbelohde) method

CCCCNC(=O)C[n+]1ccn(CC)c1.O=S(=O)([N-]S(=O)(=O)C(F)(F)F)C(F)(F)F
Settings | electrical conductivity [S/m] | mass density [kg/m3] | surface tension liquid-gas [mN/m] | viscosity [mPa·s]
283.15 K | 0.00606 | 1431 | 32.7 | –
288.15 K | 0.00985 | 1427 | 32.4 | –
293.15 K | 0.0153 | 1422.7 | 32.2 | –
298.15 K | 0.0233 | 1418 | 31.8 | 777.5
303.15 K | 0.0332 | 1413.5 | 31.6 | 517.3
308.15 K | 0.0467 | 1409 | 31 | 359
313.15 K | 0.0639 | 1404.4 | 30.8 | 255.2
318.15 K | 0.0854 | 1399.7 | 30.5 | 187.9
323.15 K | 0.111 | 1395.4 | 30.3 | 138.9
328.15 K | 0.141 | 1391 | 29.8 | 106
333.15 K | 0.177 | 1386.7 | 29.4 | 82.1
338.15 K | 0.219 | 1382.3 | 29 | 64.4
343.15 K | – | – | – | 53.3
348.15 K | – | – | – | 43.5
353.15 K | – | – | – | 35.8
358.15 K | – | – | – | 30
363.15 K | – | – | – | 25.3
